Measurements taken from patent US20160193216A1 (Nimbus Iris, Inc., priority 2012, published 2016).

Target: T1, IRAK4 (Homo sapiens, UniProt Q9NWZ3)
T1 sequence (Q9NWZ3 1-460): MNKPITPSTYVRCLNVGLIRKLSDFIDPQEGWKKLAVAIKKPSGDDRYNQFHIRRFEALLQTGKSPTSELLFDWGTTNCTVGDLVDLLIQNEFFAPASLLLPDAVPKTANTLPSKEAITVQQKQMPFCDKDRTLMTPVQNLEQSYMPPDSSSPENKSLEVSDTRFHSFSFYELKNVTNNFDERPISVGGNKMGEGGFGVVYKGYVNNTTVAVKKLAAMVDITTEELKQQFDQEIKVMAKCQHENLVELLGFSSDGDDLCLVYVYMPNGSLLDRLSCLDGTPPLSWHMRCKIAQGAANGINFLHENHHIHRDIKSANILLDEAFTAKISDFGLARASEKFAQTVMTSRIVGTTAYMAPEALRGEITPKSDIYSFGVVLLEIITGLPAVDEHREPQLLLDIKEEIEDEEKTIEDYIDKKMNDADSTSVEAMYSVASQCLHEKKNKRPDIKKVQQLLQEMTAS
Assay: IRAK-4 activity inhibition assay (Caliper)
Type: biochemical
Details: 37 μM ATP, 3.5 nM IRAK4
Description: A 1× kinase base buffer was prepared from 50 mM HEPES, pH 7.5 and 0.0015% Brij-35. A stop buffer was prepared from 100 mM HEPES, pH 7.5, 0.015% Brij-35, 0.2% Coating Reagent #3, and 50 mM EDTA.
Test compound was diluted to 50× of the final desired highest inhibitor concentration in reaction by 100% DMSO. 100 μl of this compound dilution was transferred to a well in a 96-well plate.
Test compound was serially diluted by transferring 30 μl to 60 μl of 100% DMSO in the next well and so forth for a total of 10 concentrations. 100 μl of 100% DMSO was added to two empty wells for no compound control and no enzyme control in the same 96-well plate.
A new 96-well plate was marked as intermediate plate. 5 μl of compound serial dilution was transferred from source plate to the corresponding wells of the intermediate plate. 45 μl of 1× kinase base buffer (KB buffer) was added to each well of the intermediate plate. The intermediate plate was placed for 10 min on a shaker.
5 μl of each well was transferred from the 96-well intermediate plate to a 384-well plate in duplicates. […] A2 of the 96-well plate is transferred to A3 and A4 of the 384-well plate, and so on.
IRAK4 and DTT in 1× kinase base buffer was added.
Assay plate already contained 5 μl of compound in 10% DMSO. Added 10 μl of 2.5× enzyme solution to each well of the 384-well assay plate, except no enzyme control wells. […] Added 10 μl of 1× kinase base buffer to no enzyme control wells in the assay plate. Incubated at room temperature for 10 min.
Added 10 μl of 2.5× peptide solution to each well of the 384-well assay plate. […] Incubated at 28° C. for 40 minutes. Added 25 μl of stop buffer to stop reaction. Collected data on Caliper.
Copied conversion % data from Caliper program. Converted conversion % values to percent inhibition values. Percent inhibition=(max−conversion %)/(max−min)*100, where “max” means the conversion % of DMSO control and “min” means the conversion % of no enzyme control.
The compound numbers correspond to the compound numbers in Table 1. […] “NA” stands for “not assayed.”

IC50 [µM]	Structure (SMILES)
5 to 20	CCS(=O)(=O)N1CCc2sc3ncnc(N[C@H]4CC[C@H](N5CCOCC5)CC4)c3c2C1 [Compound I-181, 12-(ethanesulfonyl)-N-[4-(morpholin-4-yl)cyclohexyl]-8-thia-4,6, 12-triazatricyclo[7.4.0.0[2,7]]trideca-1(9),2(7),3,5-tetraen-3-amine]
< 5	CN(C)[C@H]1CC[C@H](Oc2ncnc3sc4c(c23)C(C)(C)CC4)CC1 [Compound I-7, (1r,4r)-4-((5,5-dimethyl-6,7-dihydro-5H-cyclopenta[4,5]thieno[2,3-d]pyrimidin-4-yl)oxy)-N,N-dimethylcyclohexanamine]
< 5	CN(C)[C@H]1CC[C@H](Oc2ncnc3sc4c(c23)CC(CC(N)=O)CC4)CC1 (single isomer, unassigned) [Compound I-112]
< 5	CC(O)C[C@@H]1CCc2sc3ncnc(O[C@H]4CC[C@H](N5CCOCC5)CC4)c3c2C1 (stereo partly drawn) [Compound I-182, 1-((R)-4-(((1r,4R)-4-morpholinocyclohexyl)oxy)-5,6,7,8-tetrahydrobenzo[4,5]thieno[2,3-d]pyrimidin-6-yl)propan-2-ol]
< 5	C[C@H](O)C[C@H]1CCc2sc3ncnc(N[C@H]4CC[C@H](N(C)C)CC4)c3c21 [Compound I-55]
< 5	CN(C)[C@H]1CC[C@H](Oc2ncnc3sc4c(c23)CC(CCO)OC4)CC1 (stereo partly shown) [Compound I-219, 2-(3-[[4-(dimethylamino)cyclohexyl]oxy]-1-oxa-8-thia-4,6-diazatricyclo[7.4.0.0[2,7]]trideca-1(9),2,4,6-tetraen-12-yl)ethan-1-ol]
5 to 20	CN[C@H]1CC[C@H](Oc2ncnc3sc4c(c23)[C@@H](CC(=O)NC[C@@H](C)O)CC4)CC1 (stereo in doubt) [Compound I-151, N-[(2R)-2-hydroxypropyl]-2-[(3R)-12-[[4-(methylamino)cyclohexyl]oxy]-7-thia-9,11-diazatricyclo[6.4.0.0[2,6]]dodeca-1(12),2(6),8,10-tetraen-3-yl]acetamide]
< 5	CN(C)[C@H]1CC[C@H](Nc2ncnc3sc4c(c23)[C@@H](CC(N)=O)CC4)CC1 [Compound I-99, 2-[(3R)-12-[[4-(dimethylamino)cyclohexyl]amino]-7-thia-9,11-diazatricyclo[6.4.0.0[2,6]]dodeca-1(12),2(6),8,10-tetraen-3-yl]acetamide]
< 5	CC#CCOC[C@H]1CCc2sc3ncnc(O[C@H]4CC[C@H](N(C)C)CC4)c3c21 [Compound I-56, 4-[[(3S)-3-[(but-2-yn-1-yloxy)methyl]-7-thia-9,11-diazatricyclo[6.4.0.0[2,6]]dodeca-1(8),2(6),9,11-tetraen-12-yl]oxy]-N,N-dimethylcyclohexan-1-amine]
5 to 20	NC(=O)C[C@H]1CCc2sc3ncnc(OCC4CCNCC4)c3c21 [Compound I-143, 2-[(3R)-12-(piperidin-4-ylmethoxy)-7-thia-9,11-diazatricyclo[6.4.0.0[2,6]]dodeca-1(12),2(6),8,10-tetraen-3-yl]acetamide]
< 5	CN(CC(=O)N1CCCC1)[C@H]1CC[C@H](Nc2ncnc3sc4c(c23)[C@@H](CC(N)=O)CC4)CC1 [Compound I-123, 2-[(3R)-12-[(4-[methyl[2-oxo-2-(pyrrolidin-1-yl)ethyl]amino]cyclohexyl)amino]-7-thia-9,11-diazatricyclo[6.4.0.0[2,6]]dodeca-1(8),2(6),9,11-tetraen-3-yl]acetamide]
5 to 20	CN(C)[C@H]1CC[C@H](Nc2ncnc3sc4c(c23)C(C)(C)CC4)CC1 [Compound I-6, (1r,4r)-N1-(5,5-dimethyl-6,7-dihydro-5H-cyclopenta[4,5]thieno[2,3-d]pyrimidin-4-yl)-N4,N4-dimethylcyclohexane-1,4-diamine]
5 to 20	CN(CC(=O)N1CCCC1)[C@H]1CC[C@H](Nc2ncnc3sc4c(c23)[C@@H](CCC(N)=O)CC4)CC1 [Compound I-127, 3-((S)-4-(((1r,4S)-4-(methyl(2-oxo-2-(pyrrolidin-1-yl)ethyl)amino)cyclohexyl)amino)-6,7-dihydro-5H-cyclopenta[4,5]thieno[2,3-d]pyrimidin-5-yl)propanamide]
20 to 50	CCOC(=O)C1CCc2sc3ncnc(N[C@H]4CC[C@H](N)CC4)c3c21 (stereo partly shown) [Compound I-2, ethyl 4-(((1r,4r)-4-aminocyclohexyl)amino)-6,7-dihydro-5H-cyclopenta[4,5]thieno[2,3-d]pyrimidine-5-carboxylate]
< 5	CCCOC(=O)N1CCc2sc3ncnc(O[C@H]4CC[C@H](N(C)C)CC4)c3c2C1 [Compound I-184, propyl 3-[[4-(dimethylamino)cyclohexyl]oxy]-8-thia-4,6, 12-triazatricyclo[7.4.0.0[2,7]]trideca-1(9),2(7),3,5-tetraene-12-carboxylate]
< 5	CN(C1COC1)[C@H]1CC[C@H](Oc2ncnc3sc4c(c23)[C@@H](CC(N)=O)CC4)CC1 [Compound I-129, 2-((R)-4-(((1r,4R)-4-(methyl(oxetan-3-yl)amino)cyclohexyl)oxy)-6,7-dihydro-5H-cyclopenta[4,5]thieno[2,3-d]pyrimidin-5-yl)acetamide]
20 to 50	NC(=O)C[C@H]1CCc2sc3ncnc(O[C@H]4CC[C@H](N5CCNC(=O)C5)CC4)c3c21 [Compound I-158, 2-((R)-4-(((1r,4R)-4-(3-oxopiperazin-1-yl)cyclohexyl)oxy)-6,7-dihydro-5H-cyclopenta[4,5]thieno[2,3-d]pyrimidin-5-yl)acetamide]
< 5	CN(C)[C@H]1CC[C@H](Oc2ncnc3sc4c(c23)[C@@H](C[C@H](O)C2CCCO2)CC4)CC1 (stereo partly drawn) [Compound I-89, (1S)-2-((R)-4-(((1r,4R)-4-(dimethylamino)cyclohexyl)oxy)-6,7-dihydro-5H-cyclopenta[4,5]thieno[2,3-d]pyrimidin-5-yl)-1-(tetrahydrofuran-2-yl)ethanol]
5 to 20	NC(=O)CC[C@@H]1CCCc2sc3ncnc(O[C@H]4CC[C@H](N)CC4)c3c21 [Compound I-154, 3-((S)-4-(((1r,4S)-4-aminocyclohexyl)oxy)-5,6,7,8-tetrahydrobenzo[4,5]thieno[2,3-d]pyrimidin-5-yl)propanamide]
< 5	c1nc(O[C@H]2CC[C@H](N3CCOCC3)CC2)c2c3c(sc2n1)CNC3 [Compound I-192, 12-[[4-(morpholin-4-yl)cyclohexyl]oxy]-7-thia-4,9, 11-triazatricyclo[6.4.0.0[2,6]]dodeca-1(12),2(6),8, 10-tetraene]
< 5	CN(CCF)[C@H]1CC[C@H](Oc2ncnc3sc4c(c23)[C@@H](CC(N)=O)CC4)CC1 [Compound I-125, 2-((R)-4-(((1r,4R)-4-((2-fluoroethyl)(methyl)amino)cyclohexyl)oxy)-6,7-dihydro-5H-cyclopenta[4,5]thieno[2,3-d]pyrimidin-5-yl)acetamide]
> 50	CCNC(=O)C[C@@H]1CCc2sc3ncnc(O[C@H]4CC[C@H](N(C)C)CC4)c3c21 [Compound I-36, 2-[(3S)-12-[[4-(dimethylamino)cyclohexyl]oxy]-7-thia-9,11-diazatricyclo[6.4.0.0[2,6]]dodeca-1(12),2(6),8,10-tetraen-3-yl]-N-ethylacetamide]
< 5	C/C=C/COC[C@H]1CCc2sc3ncnc(O[C@H]4CC[C@H](N(C)C)CC4)c3c21 [Compound I-59, 4-[[(3S)-3-[[(2E)-but-2-en-1-yloxy]methyl]-7-thia-9,11-diazatricyclo[6.4.0.0[2,6]]dodeca-1(8),2(6),9,11-tetraen-12-yl]oxy]-N,N-dimethylcyclohexan-1-amine]
5 to 20	CN1Cc2sc3ncnc(O[C@H]4CC[C@H](N5CCOCC5)CC4)c3c2C1 [Compound I-196, 4-methyl-12-[[4-(morpholin-4-yl)cyclohexyl]oxy]-7-thia-4,9,11-triazatricyclo[6.4.0.0[2,6]]dodeca-1(12),2(6),8, 10-tetraene]
< 5	CCNC(=O)CC1CCc2sc3ncnc(O[C@H]4CC[C@H](N(C)C)CC4)c3c21 (stereo in doubt) [Compound I-35, 2-[(3S)-12-[[4-(dimethylamino)cyclohexyl]oxy]-7-thia-9,11-diazatricyclo[6.4.0.0[2,6]]dodeca-1(12),2(6),8,10-tetraen-3-yl]-N-ethylacetamide]
